Test results: patent US20230303569A1, “HETEROCYCLIC COMPOUNDS AS THERAPEUTIC AGENTS” (Arisan Therapeutics Inc., priority 2021, published 2023)
Where two headings read alike, the source gives them in different places.

Legend:
human Nav1.6 = target: T1, human Nav1.6 (Homo sapiens, UniProt Q9UQD0); test: Two pulse assay protocol, Nav1.6; type: cell-based; conditions: peak current
T1 construct: host or cells: HEK293
Method: (§1) In vitro Na+ Current Inhibition Assays were performed by Eurofins Discovery (St Charles, MO). All compound functional activity determinations were determined through electrophysiological analyses of Na+ currents in HEK293 cells expressing a stably transfected Na+ channel (human Nav1.1, 1.2, 1.3, 1.5, 1.6, 1.7, or 1.8). After harvesting with Accutase cells are maintained in serum free medium at room temperature prior to electrophysiological recording utilizing the QPatch HT automated whole-cell patch-clamp platform (Sophion Bioscience, Woburn MA). Stock solution aliquots of the test compound are prepared in DMSO at 300× the final assay concentrations, and stored at −20° C. until the day of assay. On the day of the assay, an aliquot of the stock solution is thawed and diluted into external solution (137 mM NaCl, 4 mM KCl, 1 mM MgCl2, 1.8 mM CaCl2, 10 mM HEPES, 10 mM Glucose (pH 7.3, titrated with 10M NaOH) to make final test concentrations. A final concentration of 0.33% DMSO is maintained for each concentration of the assay compounds. Internal solution for recordings of Na+ consist consists of 100 mM CsF, 45 mM CsCl, 5 mM NaCl, 10 mM HEPES, 5 mM EGTA (pH 7.3, titrated with 1M CsOH).
(§2) Two pulse assay protocol for human Nav1.1, 1.2, 1.3, 1.5, 1.6, 1.7, and 1.8 channels. Mammalian cultured cells expressing the indicated human Nav1.1, 1.2, 1.3, 1.5, 1.6, 1.7 or 1.8 channels were assayed using the The QPatch HT (Sophion Bioscience, Woburn MA) automated system with an intracellular solution (mM) of 100 CsF, 45 CsCl, 5 NaCl, 10 HEPES, 5 EGTA (pH 7.3, titrated with 1M CsOH) and extracellular solution (mM) of 137 NaCl, 4 KCl, 1 MgCl2, 1.8 CaCl2, 10 HEPES, 10 Glucose (pH 7.3, titrated with 10M NaOH). Onset and steady state block of the sodium channel was measured using a pulse pattern, repeated every 20 seconds (s) from a holding potential of −120 mV for 100 ms, and then pulsed to 0 mV for 500 ms to inactivate the Na channels and facilitate inactivated state-dependent binding of the test compounds. The cell membranes were then stepped back to −120 mV for 10 ms to recover from inactivation into resting or closed state (channels with test compound bound to them will not recover from inactivation and will not open) before stepping to 0 mV for 50 ms (pulse 2) to measure Na channels that are available to open. Peak current was measured during the step to 0 mV at pulse 1 and 2 to measure tonic and state-dependent inhibition. Compound activities were assessed by dividing post current amplitude (at the end of each five (5) minute compound application) by the vehicle control amplitude and the mean calculated for each compound concentration. Tetracaine was used as a positive control and was tested concurrently with the test compounds. Current amplitudes in excess of 200 pA at the control stage were analyzed. The amplitude of the current was calculated by measuring the difference between the peak inward current on stepping to 0 mV (i.e. peak of the current) and remaining current at the end of the step. The current was assessed in vehicle control conditions and then at the end of each five (5) minute compound application.

human Nav1.8 = target: T2, human Nav1.8 (Homo sapiens, UniProt Q9Y5Y9); test: Two pulse assay protocol, Nav1.8; type: cell-based; conditions: peak current
T2 construct: host or cells: HEK293
T2 sequence (Q9Y5Y9 whole entry): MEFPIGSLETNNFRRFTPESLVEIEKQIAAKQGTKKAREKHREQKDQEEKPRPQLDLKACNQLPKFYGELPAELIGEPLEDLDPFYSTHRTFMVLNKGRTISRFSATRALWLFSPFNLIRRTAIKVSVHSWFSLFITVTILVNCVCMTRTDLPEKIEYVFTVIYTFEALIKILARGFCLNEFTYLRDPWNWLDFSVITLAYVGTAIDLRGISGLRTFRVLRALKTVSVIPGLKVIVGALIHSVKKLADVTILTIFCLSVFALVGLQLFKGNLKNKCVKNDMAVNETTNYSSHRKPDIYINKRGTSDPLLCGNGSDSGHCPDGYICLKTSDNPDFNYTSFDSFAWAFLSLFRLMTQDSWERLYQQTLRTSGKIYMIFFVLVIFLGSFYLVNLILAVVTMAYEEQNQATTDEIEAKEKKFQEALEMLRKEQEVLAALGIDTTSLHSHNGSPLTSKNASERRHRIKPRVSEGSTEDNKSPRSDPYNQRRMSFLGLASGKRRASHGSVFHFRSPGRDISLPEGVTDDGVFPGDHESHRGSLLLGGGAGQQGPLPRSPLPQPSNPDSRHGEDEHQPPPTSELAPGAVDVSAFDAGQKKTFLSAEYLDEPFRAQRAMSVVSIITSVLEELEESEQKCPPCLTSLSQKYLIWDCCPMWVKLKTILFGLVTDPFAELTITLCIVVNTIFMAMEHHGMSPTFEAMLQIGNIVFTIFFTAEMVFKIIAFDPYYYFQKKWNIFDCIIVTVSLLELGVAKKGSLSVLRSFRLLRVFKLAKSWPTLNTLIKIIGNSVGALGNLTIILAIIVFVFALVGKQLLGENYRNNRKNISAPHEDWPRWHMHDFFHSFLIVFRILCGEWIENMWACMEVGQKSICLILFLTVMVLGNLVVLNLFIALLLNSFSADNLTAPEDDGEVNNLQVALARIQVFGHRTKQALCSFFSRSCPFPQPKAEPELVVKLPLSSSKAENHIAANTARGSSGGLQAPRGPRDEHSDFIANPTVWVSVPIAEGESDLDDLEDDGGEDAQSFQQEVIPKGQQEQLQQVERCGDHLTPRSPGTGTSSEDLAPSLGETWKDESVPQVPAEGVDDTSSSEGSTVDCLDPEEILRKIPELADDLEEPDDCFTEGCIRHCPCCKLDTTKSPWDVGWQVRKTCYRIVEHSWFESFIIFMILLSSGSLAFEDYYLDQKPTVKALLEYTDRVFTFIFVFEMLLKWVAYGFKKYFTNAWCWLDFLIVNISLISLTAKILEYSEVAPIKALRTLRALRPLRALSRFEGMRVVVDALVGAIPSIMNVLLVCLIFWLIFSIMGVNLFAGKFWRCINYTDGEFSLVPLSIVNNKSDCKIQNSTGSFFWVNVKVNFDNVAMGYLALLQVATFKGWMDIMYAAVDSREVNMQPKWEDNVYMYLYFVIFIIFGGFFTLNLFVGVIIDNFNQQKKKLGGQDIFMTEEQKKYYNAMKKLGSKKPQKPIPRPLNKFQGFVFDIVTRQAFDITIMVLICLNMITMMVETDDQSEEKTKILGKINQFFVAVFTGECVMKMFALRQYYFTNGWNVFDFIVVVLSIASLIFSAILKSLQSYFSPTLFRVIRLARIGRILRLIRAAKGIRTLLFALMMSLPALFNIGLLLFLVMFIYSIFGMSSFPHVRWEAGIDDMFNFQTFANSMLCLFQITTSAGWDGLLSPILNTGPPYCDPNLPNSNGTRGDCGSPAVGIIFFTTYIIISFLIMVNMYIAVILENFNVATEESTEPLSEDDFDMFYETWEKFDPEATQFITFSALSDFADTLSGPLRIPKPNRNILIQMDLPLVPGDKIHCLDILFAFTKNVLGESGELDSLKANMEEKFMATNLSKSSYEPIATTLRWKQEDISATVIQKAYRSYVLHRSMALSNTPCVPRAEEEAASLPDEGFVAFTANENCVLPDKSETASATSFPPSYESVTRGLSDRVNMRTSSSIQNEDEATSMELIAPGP
Method: as §1, §2

[1] = pulse 1 (tonic), read-out: percent inhibition hNav1.6, Pulse 1 (5 uM)
[2] = pulse 2 (state-dependent), read-out: percent inhibition hNav1.6, Pulse 2 (5 uM)
[3] = pulse 1 (tonic), read-out: percent inhibition hNav1.6, Pulse 1 (2.5 uM)
[4] = pulse 2 (state-dependent), read-out: percent inhibition hNav1.6, Pulse 2 (2.5 uM)
[5] = pulse 1 (tonic), read-out: percent inhibition hNav1.8, Pulse 1 (5 uM)
[6] = pulse 2 (state-dependent), read-out: percent inhibition hNav1.8, Pulse 2 (5 uM)

T1 sequence (Q9UQD0 whole entry): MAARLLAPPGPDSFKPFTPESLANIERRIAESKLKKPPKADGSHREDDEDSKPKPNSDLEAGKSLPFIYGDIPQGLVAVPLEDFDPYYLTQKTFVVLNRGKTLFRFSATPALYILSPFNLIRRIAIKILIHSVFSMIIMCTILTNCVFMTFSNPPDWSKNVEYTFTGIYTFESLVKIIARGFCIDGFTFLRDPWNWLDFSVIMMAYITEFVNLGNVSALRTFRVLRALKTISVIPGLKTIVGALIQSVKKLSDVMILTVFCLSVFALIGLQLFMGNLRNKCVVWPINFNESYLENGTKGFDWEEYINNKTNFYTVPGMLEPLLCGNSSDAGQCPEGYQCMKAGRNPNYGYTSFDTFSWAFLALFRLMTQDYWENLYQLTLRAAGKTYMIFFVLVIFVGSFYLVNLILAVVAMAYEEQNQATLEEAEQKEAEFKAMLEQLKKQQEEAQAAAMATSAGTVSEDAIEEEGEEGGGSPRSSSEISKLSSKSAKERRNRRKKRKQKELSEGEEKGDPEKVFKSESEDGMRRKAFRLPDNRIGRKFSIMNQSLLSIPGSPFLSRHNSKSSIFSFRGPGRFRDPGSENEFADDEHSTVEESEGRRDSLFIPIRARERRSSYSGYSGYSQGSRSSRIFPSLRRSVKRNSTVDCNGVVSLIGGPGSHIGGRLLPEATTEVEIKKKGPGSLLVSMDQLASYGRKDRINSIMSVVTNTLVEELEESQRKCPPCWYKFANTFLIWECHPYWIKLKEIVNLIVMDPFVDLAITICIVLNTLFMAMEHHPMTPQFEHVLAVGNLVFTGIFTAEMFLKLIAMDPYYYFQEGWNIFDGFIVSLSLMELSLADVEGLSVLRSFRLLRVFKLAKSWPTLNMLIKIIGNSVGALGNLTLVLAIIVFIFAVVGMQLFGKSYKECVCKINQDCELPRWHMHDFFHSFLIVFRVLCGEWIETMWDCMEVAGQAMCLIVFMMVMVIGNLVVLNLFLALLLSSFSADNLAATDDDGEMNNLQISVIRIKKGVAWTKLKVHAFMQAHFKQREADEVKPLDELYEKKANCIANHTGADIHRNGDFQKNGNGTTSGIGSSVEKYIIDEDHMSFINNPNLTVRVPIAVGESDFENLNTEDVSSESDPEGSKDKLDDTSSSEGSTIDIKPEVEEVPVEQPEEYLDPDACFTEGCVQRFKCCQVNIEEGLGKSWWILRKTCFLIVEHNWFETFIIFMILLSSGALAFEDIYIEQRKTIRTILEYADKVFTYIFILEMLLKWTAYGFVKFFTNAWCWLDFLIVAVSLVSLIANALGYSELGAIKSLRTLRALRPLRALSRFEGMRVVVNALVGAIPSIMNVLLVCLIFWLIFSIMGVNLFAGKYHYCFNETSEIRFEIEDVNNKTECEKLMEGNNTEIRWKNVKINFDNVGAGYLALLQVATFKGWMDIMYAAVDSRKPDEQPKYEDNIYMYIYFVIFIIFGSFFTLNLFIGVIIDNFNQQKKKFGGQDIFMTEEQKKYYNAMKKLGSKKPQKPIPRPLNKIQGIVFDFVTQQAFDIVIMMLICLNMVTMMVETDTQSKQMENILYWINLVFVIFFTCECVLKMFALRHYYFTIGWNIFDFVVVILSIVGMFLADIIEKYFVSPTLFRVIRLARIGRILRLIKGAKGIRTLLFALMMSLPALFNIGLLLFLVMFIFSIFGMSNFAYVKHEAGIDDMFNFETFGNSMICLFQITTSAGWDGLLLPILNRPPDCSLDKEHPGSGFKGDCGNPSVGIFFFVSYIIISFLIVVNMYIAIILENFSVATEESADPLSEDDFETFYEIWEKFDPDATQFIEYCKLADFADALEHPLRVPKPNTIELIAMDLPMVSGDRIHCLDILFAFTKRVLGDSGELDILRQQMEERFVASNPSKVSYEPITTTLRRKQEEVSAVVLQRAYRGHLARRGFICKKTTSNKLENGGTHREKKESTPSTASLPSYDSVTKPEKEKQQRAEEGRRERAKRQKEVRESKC

| inhibition at 5 µM (human Nav1.6; [1]) [%] | inhibition at 5 µM (human Nav1.6; [2]) [%] | Structure (SMILES) | also measured |
| --- | --- | --- | --- |
| < 50 | > 90 | CC(C)Oc1ccc(-c2ccc3ncc(-c4ccc(OC(C)C)cc4)n3c2)cc1 [Example C2, 3,6-bis[4-(propan-2-yloxy)phenyl]imidazo[1,2-a]pyridine] | – |
| < 50 | 50 to 90 | Cc1cc(OC(C)C)ccc1-c1ccc2ncc(-c3ccc(OC(C)C)cc3)n2c1 [Example C18, 6-[2-methyl-4-(propan-2-yloxy)phenyl]-3-[4-(propan-2-yloxy)phenyl]imidazo[1,2-a]pyridine] | – |
| < 50 | < 50 | CC(C)Oc1ccc(-c2cnc3ccc(-c4ccc(OC(C)C)cc4F)cn23)cc1 [Example C23, 6-[2-fluoro-4-(propan-2-yloxy)phenyl]-3-[4-(propan-2-yloxy)phenyl]imidazo[1,2-a]pyridine] | – |
| < 50 | 50 to 90 | Cc1cc2ncc(-c3ccc(OC(C)C)cc3)n2cc1-c1ccc(OC(C)C)cc1 [Example C48, 7-methyl-3,6-bis[4-(propan-2-yloxy)phenyl]imidazo[1,2-a]pyridine] | – |
| < 50 | < 50 | Cc1cc(-c2ccc(OC(C)C)cc2)cn2c(-c3ccc(OC(C)C)cc3)cnc12 [Example C50, 8-methyl-3,6-bis[4-(propan-2-yloxy)phenyl]imidazo[1,2-a]pyridine] | – |
| < 50 | 50 to 90 | CC(C)Oc1ccc(-c2ccc3ncc(-c4ccc(OC(C)C)nc4F)n3c2)cc1 [Example C74, 3-(2-fluoro-6-isopropoxypyridin-3-yl)-6-(4-isopropoxyphenyl)imidazo[1,2-a]pyridine] | – |
| < 50 | 50 to 90 | CC(C)Oc1ccc(-c2ccc3ncc(-c4cnc(OC(C)C)nc4)n3c2)cc1 [Example C75, 6-(4-isopropoxyphenyl)-3-(2-isopropoxypyrimidin-5-yl)imidazo[1,2-a]pyridine] | – |
| < 50 | > 90 | CC(C)Oc1ccc(-c2ccc3ncc(-c4ccnc(OC(C)C)c4)n3c2)cc1 [Example C76, 6-(4-isopropoxyphenyl)-3-(2-isopropoxypyridin-4-yl)imidazo[1,2-a]pyridine] | – |
| < 50 | 50 to 90 | CC(C)Oc1ccc(-c2ccc3ncc(-c4cncc(OC(C)C)c4)n3c2)cc1 [Example C77, 6-(4-isopropoxyphenyl)-3-(5-isopropoxypyridin-3-yl)imidazo[1,2-a]pyridine] | – |
| < 50 | > 90 | CC(C)Oc1ccc(-c2ccc3ncc(-c4ccc(Oc5ccccc5)nc4)n3c2)cc1 [Example C88, 6-(4-isopropoxyphenyl)-3-(6-phenoxypyridin-3-yl)imidazo[1,2-a]pyridine] | – |

Further lines, the compound ahead of its results:

| Structure (SMILES) | inhibition at 5 µM (human Nav1.6; [1]) [%] | inhibition at 5 µM (human Nav1.6; [2]) [%] | also measured |
| --- | --- | --- | --- |
| CC(C)Oc1ccc(-c2cnc3ccc(-c4ccc(OC(C)(C)C)cc4)cn23)cc1 [Example C21, 6-[4-(tert-butoxy)phenyl]-3-[4-(propan-2-yloxy)phenyl]imidazo[1,2-a]pyridine] | < 50 | > 90 | – |
| Cc1c(-c2ccc(OC(C)C)cc2)ccc2ncc(-c3ccc(OC(C)C)cc3)n12 [Example C51, 5-methyl-3,6-bis[4-(propan-2-yloxy)phenyl]imidazo[1,2-a]pyridine] | < 50 | < 50 | – |
| COc1cc(OC)cc(-c2ccc3ncc(-c4ccc(OC(F)(F)F)cc4)n3c2)c1 [Example C58, 6-(3,5-dimethoxyphenyl)-3-(4-(trifluoromethoxy)phenyl)imidazo[1,2-a]pyridine] | – | – | inhibition at 2.5 µM (human Nav1.6; [3]): < 50%; inhibition at 2.5 µM (human Nav1.6; [4]): > 90%; inhibition at 5 µM (human Nav1.8; [5]): 50 to 90%; inhibition at 5 µM (human Nav1.8; [6]): 50 to 90% |
| COc1cc(OC)cc(-c2cnc3ccc(-c4ccc(OC(F)(F)F)cc4)cn23)c1 [Example C59, 3-(3,5-dimethoxyphenyl)-6-(4-(trifluoromethoxy)phenyl)imidazo[1,2-a]pyridine] | – | – | inhibition at 5 µM (human Nav1.8; [5]): < 50%; inhibition at 5 µM (human Nav1.8; [6]): < 50% |
| Cc1cc2ncc(-c3ccc(OC(C)(C)C)cc3)n2cc1-c1ccc(OC(C)C)nc1 [Example C78, 3-(4-(tert-butoxy)phenyl)-6-(6-isopropoxypyridin-3-yl)-7-methylimidazo[1,2-a]pyridine] | < 50 | > 90 | – |
| Cc1cc2ncc(-c3ccc(OC(C)(C)C)cc3)n2cc1-c1ccc(OC(C)C)c(F)c1 [Example C79, 3-(4-(tert-butoxy)phenyl)-6-(3-fluoro-4-isopropoxyphenyl)-7-methylimidazo[1,2-a]pyridine] | < 50 | 50 to 90 | – |
| Cc1cc2ncc(-c3ccc(OC(C)C)cc3)n2cc1-c1ccc(OC(C)C)c(F)c1 [Example C80, 6-(3-fluoro-4-isopropoxyphenyl)-3-(4-isopropoxyphenyl)-7-methylimidazo[1,2-a]pyridine] | < 50 | < 50 | – |
| CC(C)Oc1ccc(-c2ccc3ncc(-c4ccc(OC(C)(C)C)cc4)n3c2)cc1F [Example C81, 3-(4-(tert-butoxy)phenyl)-6-(3-fluoro-4-isopropoxyphenyl)imidazo[1,2-a] pyridine] | < 50 | > 90 | – |
| CC(C)(C)Oc1ccc(-c2ccc3ncc(-c4ccc(OC(C)(C)C)cc4)n3c2)cc1 [Example C82, 3,6-bis(4-(tert-butoxy)phenyl)imidazo[1,2-a]pyridine] | < 50 | > 90 | – |
| CC(C)Oc1ccc(-c2ccc3ncc(-c4ccc(OC(C)(C)C)cc4)n3c2)cn1 [Example C83, 3-(4-(tert-butoxy)phenyl)-6-(6-isopropoxypyridin-3-yl)imidazo[1,2-a]pyridine] | < 50 | 50 to 90 | – |
| Cc1cc2ncc(-c3ccc(OC(C)(C)C)nc3)n2cc1-c1ccc(OC(C)C)cc1 [Example C84, 3-(6-(tert-butoxy)pyridin-3-yl)-6-(4-isopropoxyphenyl)-7-methylimidazo[1,2-a]pyridine] | < 50 | 50 to 90 | – |
| Cc1cc2ncc(-c3ccc(OC(C)(C)C)nc3)n2cc1-c1ccc(OC(C)C)c(F)c1 [Example C85, 3-(6-(tert-butoxy)pyridin-3-yl)-6-(3-fluoro-4-isopropoxyphenyl)-7-methylimidazo[1,2-a]pyridine] | < 50 | 50 to 90 | – |
| CC(C)(C)Oc1ccc(-c2cnc3ccc(-c4cnc(OCC(F)(F)F)c(F)c4)cn23)cc1 [Example C86, 3-(4-(tert-butoxy)phenyl)-6-(5-fluoro-6-(2,2,2-trifluoroethoxy)pyridin-3-yl)imidazo[1,2-a]pyridine] | < 50 | > 90 | – |
| CC(C)Oc1ccc(-c2cn3c(-c4ccc(OC(C)(C)C)cc4)cnc3cc2Cl)cc1 [Example C91, 3-(4-(tert-butoxy)phenyl)-7-chloro-6-(4-isopropoxyphenyl)imidazo[1,2-a]pyridine] | – | – | inhibition at 2.5 µM (human Nav1.6; [3]): < 50%; inhibition at 2.5 µM (human Nav1.6; [4]): < 50% |
| CC(C)Oc1ccc(-c2ccc3ncc(-c4ccc(OC(C)C)cc4)n3n2)cc1 [Example D10, 3,6-bis[4-(propan-2-yloxy)phenyl]imidazo[1,2-b]pyridazine] | < 50 | > 90 | – |
| Cc1cc2ncc(-c3ccc(OC(C)(C)C)cc3)n2nc1-c1ccc(OC(C)C)cc1 [Example D23, 3-(4-(tert-butoxy)phenyl)-6-(4-isopropoxyphenyl)-7-methylimidazo[1,2-b]pyridazine] | < 50 | 50 to 90 | – |
